Test results: patent EP3797781A1, “USE OF EC-7072 AND SYNERGIC COMPOSITIONS THEREOF IN TREATMENT OF CHRONIC LYMPHOCYTIC LEUKEMIA” (priority 2019, dated 2021)

Assays:
T cells and NK cells = assay: Intracellular staining of IFN-γ and perforin upon PMA/ionomycin stimulation; format: cell-based, human; conditions: 200 nM, 24 hours, PBMCs from patients with CLL (n = 4)
Description: PBMCs from patients with CLL were treated with 200 nM EC-7072 or DMSO for 24 hours and stimulated with PMA (50 ng/mL) and ionomycin (1 µg/mL) for 5 hours in the presence of GolgiPlug protein transport inhibitor (Beckton Dickinson). T cells and NK cells were then analyzed for intracellular levels of IFN-γ and perforin by flow cytometry.
The effect of EC-7072 toward healthy immune subsets, T lymphocytes and natural killer (NK) cells, which are chronically exposed to leukemia cells in the peripheral blood of patients with CLL was assessed by: • (i) incubating PBMCs isolated from patients with CLL (n = 10) following treatment with increasing concentrations of EC-7072 (0 - 400 nM) for 24 hours. Numbers of T cells (CD3^+CD56^-) (Figure 2A) and NK cells (CD3^-CD56^+) (Figure 2B) were evaluated by flow cytometry and normalized to their respective control (DMSO) condition for each individual patient to obtain percentage of relative number of T cells and NK cells, respectively; • (ii) incubating PBMCs isolated from patients with CLL (n = 6 - 10) following treatment with increasing concentrations of EC-7072 (0 - 400 nM) for 24 hours. […]

HK-2 cells = assay: Cell death of HK-2 cells by PI staining; format: cell-based, human; conditions: 200 nM, 24 hours; n = 3
Description: Effectiveness of EC-7072 against different B-cell malignancies was assessed by; • (i) incubating primary fibroblasts from healthy donors (n = 4) and HK-2 cells from healthy human adult kidney (n = 3) following treatment with MTA (200 nM) or EC-7072 (200 nM) for 24 hours. Cell death was evaluated by PI staining to obtain the percentages corresponding to the [PI^+] subset (Figure 5A) and the mean percentage of [PI^+] cells (Figure 5B); • (ii) treating MEC-1, GRANTA-519, Z-138, JVM-2, CA-46, Ramos, Raji and U266 cell lines (n = 3) following treatment with EC-7072 (500 nM) followed by incubation for 24 hours. Cell viability was assessed by DiOC6(3)/PI staining and normalized to control (DMSO) condition to obtain mean percentage of viable [DiOC6(3)^+] cells (Figure 5C).

SMILES: CO[C@@H]([C@@H]1Cc2cc3cc(O[C@H]4C[C@@H](O[C@H]5C[C@@H](O)[C@H](O)[C@@H](C)O5)[C@H](O)[C@@H](C)O4)c(C)c(O)c3c(O)c2C(=O)[C@H]1O[C@H]1C[C@@H](O[C@H]2C[C@@H](O[C@H]3C[C@](C)(O)[C@H](O)[C@@H](C)O3)[C@@H](O)[C@@H](C)O2)[C@H](O)[C@@H](C)O1)[C@@H](O)C(C)=O [EC-7072, mithramycin SK]
- production of interferon (IFN)-γ and perforin by T cells and NK cells (T cells and NK cells): not significantly altered
- viability of HK-2 cells (PI^+ cells) (HK-2 cells): did not markedly affect the viability
